Laboratory results reported in US20090012148A1, “REDUCING CELLULAR CHOLESTEROL LEVELS AND/OR TREATING OR PREVENTING PHOSPHOLIPIDOSIS” (priority 2005, published 2009).

How the values were obtained:
[1] = tested on: CT43 cells; experiment: Toxicity assay by cell count (Hoechst 33258); type: cell-based, Chinese hamster; conditions: 24 h
Protocol: To measure toxicity, we treated CT60 and CT43 cells with compounds at 5, 10 and 20 μM for 24 h. The cell number per well was compared to control cells treated with DMSO (FIG. 7). […] Compound 1-a-14 did cause a 50% reduction in cell number at 10 μM for CT60 and an 80% reduction for CT43 cells. Compounds 1-a-4, 5, 6, 8 and 13 were partially toxic as indicated by 20-30% reduction in cell number after 24 h at 10 μM. Procedure Using Cell Count Assay: Compounds were added to CT60 and CT43 cells plated in 384 well plates at 0 (DMSO solvent control), 5, 10 and 20 μM concentrations in quadruplicate using methods similar to the dose dependence assay, except that the cells were stained with Hoechst 33258 nuclear stain. The final DMSO concentration in each well was 0.2%. For the control cells an equivalent amount of DMSO was added to the cells. The cells were incubated for 24, 48 and 72 h. After each time period, cells were washed and then fixed with 1.5% PFA. After washing the cells three times with PBS, the nuclei of the cells were stained using 5 μg/ml Hoechst 33258 (25 mg/ml stock solution in DMSO) in PBS for 45 m at room temperature. Finally, cells were washed three times with PBS, and images were obtained using a Nikon 4× Plan Apo 0.2NA objective. For Hoechst imaging we used the same filter set as for filipin. We collected one 520×696 pixel image per well at 12 intensity bits per pixel. Each pixel is 3.125 by 3.125 μm in […] the object. Cells were counted by defining the standard area of single nuclei (˜200 μm^2) interactively for each plate using the Integrated Morphometry Analysis function of MetaMorph. The number of standard areas per object above a threshold was determined, and the total number of standard areas per image was used as the cell count. The percent reduction in the number of cells compared to DMSO control was calculated for each concentration and time.

[2] = tested on: CT60 cells; experiment: DiI-LDL uptake; type: cell-based, Chinese hamster; conditions: DiI-LDL 6 μg/ml, compounds 10 μM, 20 hours, ±SEM
Protocol: CT60 cells were grown to 70% confluency in 96 well special optics plates (Corning, Inc., Corning, N.Y.). After 24 hours, cells were incubated with DiI-LDL (6 μg/ml) and hit compounds (10 μM) in screening medium supplemented with 20 mM HEPES. Each compound was added to 8 wells and an equivalent amount of DMSO with DiI-LDL was added to control wells. After 20 h, cells were washed three times with PBS, fixed with 1.5% PFA for 20 min, and stained with 50 μg/ml filipin for 45 min. Images were acquired using the Discovery-1 automatic fluorescence microscope at 20× magnification. DiI-LDL images were acquired using 535 nm/40 nm excitation filter and 610 nm/60 nm band pass with a Chroma 51001bs DiChroic filter. Filipin images were acquired as described above. Images were acquired for 4 sites per well, yielding 32 images per compound. The DiI-LDL images were background and shade corrected as described above. A low threshold was set to define the cell area based on filipin images. Finally, the average DiI-LDL intensity was measured per cell area.
Cells were incubated with DiI-LDL (6 μg/ml) in the presence of compounds (10 μM) for 20 hours. The intensity per unit cell area was measured as described in Methods. Values are normalized to the intensity per cell area for control (solvent-treated) cells. Values are based on averages from 32 images from 8 wells for each condition. ±SEM.

| Compound | reduction in cell number ([1]; 10 μM) [%] | DiI Intensity/cell area Fraction of control [2] | reduction in the number of cells ([1]; 20 μM) [%] |
| --- | --- | --- | --- |
| CCOc1cccc2cc(-c3csc(Nc4cccc(C(F)(F)F)c4)n3)c(=O)oc12 [Compound 1-a-14] | 80 |  |  |
| COc1ccccc1Nc1nc(Nc2ccccc2OC)nc(Nc2ccccc2OC)n1 [Compound 2-a-9] |  | 0.85 ± 0.01 Fraction of control |  |
| O=[N+]([O-])c1cccc(C=NNc2nc(Nc3cccc4ccccc34)nc(N(c3ccccc3)c3ccccc3)n2)c1 [Compound 2-a-13] |  | 0.72 ± 0.01 Fraction of control |  |
| C=CCN1C(=O)C(=Cc2cc(C)n(-c3ccccc3)c2C)C(C(=O)OC)=C1C [Compound 2-a-15] |  | 1.00 ± 0.01 Fraction of control |  |
| CCN(CC)c1ccc(C=C2SC(=S)N(c3ccc(OC)cc3)C2=O)cc1 [Compound 2-a-3] |  | 0.62 ± 0.01 Fraction of control |  |
| FC(F)(F)COc1nc(NN=Cc2cccc(I)c2)nc(N(c2ccccc2)c2ccccc2)n1 [Compound 2-a-12] |  | 0.72 ± 0.01 Fraction of control | 75 |
